Data: ChEMBL document CHEMBL2074116, “Functional analysis of rat renal organic anion transporter OAT-K1: bidirectional methotrexate transport in apical membrane” (FEBS Lett, 1999)
Each block holds one molecule with its values, some of them ahead of it.

Assays:
Assay type in all cases: functional, cell-based
[1] = target: T1, Solute carrier organic anion transporter family member 1A3 (Rattus norvegicus, UniProt P70502); assay: TP_TRANSPORTER: uptake in Xenopus laevis oocytes; conditions: oocyte
T1 sequence (P70502 whole entry): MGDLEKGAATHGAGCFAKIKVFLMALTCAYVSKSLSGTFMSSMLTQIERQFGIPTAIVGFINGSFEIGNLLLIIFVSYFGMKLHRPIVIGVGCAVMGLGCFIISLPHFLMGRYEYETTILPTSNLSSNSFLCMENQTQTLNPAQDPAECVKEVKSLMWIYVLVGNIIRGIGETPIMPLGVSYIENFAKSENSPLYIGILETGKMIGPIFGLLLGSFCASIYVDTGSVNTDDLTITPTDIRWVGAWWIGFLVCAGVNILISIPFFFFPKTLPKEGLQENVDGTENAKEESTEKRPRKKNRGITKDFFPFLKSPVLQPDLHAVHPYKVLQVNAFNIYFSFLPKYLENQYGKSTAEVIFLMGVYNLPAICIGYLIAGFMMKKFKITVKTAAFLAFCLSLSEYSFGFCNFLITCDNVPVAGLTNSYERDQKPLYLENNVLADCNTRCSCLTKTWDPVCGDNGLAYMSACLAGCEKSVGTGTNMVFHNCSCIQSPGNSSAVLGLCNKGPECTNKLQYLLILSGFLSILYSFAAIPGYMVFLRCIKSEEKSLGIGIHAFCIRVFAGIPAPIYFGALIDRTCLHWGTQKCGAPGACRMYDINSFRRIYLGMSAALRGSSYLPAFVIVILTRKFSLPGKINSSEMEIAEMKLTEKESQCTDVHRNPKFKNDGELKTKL

[2] = target: T1, Solute carrier organic anion transporter family member 1A3; assay: TP_TRANSPORTER: inhibition of MTX uptake (MTX: 0.01 uM, PAH: 100 uM) in OAT-K1-expressing MDCK cells; conditions: dog
[3] = substrate: CN(Cc1cnc2nc(N)nc(N)c2n1)c1ccc(C(=O)N[C@@H](CCC(=O)O)C(=O)O)cc1; assay: TP_TRANSPORTER: uptake in OAT-K1-expressing MDCK cells

Activity [1]: is not a substrate [-]
Molecule: Nc1ccc(C(=O)NCC(=O)O)cc1 [AMINOHIPPURIC ACID]
Activity [2]: inhibitor [(at a rough estimate) 55 % of control]

B1: Solute carrier organic anion transporter family member 1A3 (Rattus norvegicus) (protein)
chain: T1 sequence (P70502 whole entry)
Km [3]: 2.1 µM
